In patent publication US20110052700A1, “GASTRIC RETENTIVE PHARMACEUTICAL COMPOSITIONS FOR IMMEDIATE AND EXTENDED RELEASE OF LEVOSULPIRIDE” (DEPOMED, INC., priority 2009, published 2011):

Legend:
[1] = Stress stability study, open dishes at 50° C or 80° C, 75% RH, 3 days, HPLC impurity analysis; assay type: physicochemical
Experimental: In the present work, levosulpiride was subjected to stress and compatibility studies using methods published in the European Pharmacopoeia, Supplement 2001, 1572 Assay. Both levosulpiride powder and granules comprising 95 wt % levosulpiride and 5 wt % povidone (PVP) prepared as described in Example 1 were incubated in open dishes in a stability chamber/oven at 50° C. or 80° C., 75% relative humidity (RH) for 3 days. The substances were then analyzed by HPLC (high performance liquid chromatography). The mobile phase (MP) was composed of 10% acetonitrile (ACN), 10% methanol (MeOH) and an 80% solution containing 6.8 g/l of potassium dihydrogen phosphate and 1 g/l of sodium octanesulphonate, pH 3.3. The column was a 0.25 m×4.6 mm, 5 μm Zorbax RX C8 (Agilent, Inc.), flow was set at 1.5 ml/min with a wavelength of 240 nm.

[2] = Excipient compatibility study, HDPE bottles, 40° C, 75% RH, HPLC impurity analysis; assay type: physicochemical
Experimental: Studies were done to determine compatibility of the levosulpiride with the various excipients used in the formulations described herein. Samples, as described in Table 12 below, were packaged into 60 cc high-density polyethylene (HDPE) bottles with an induction seal, then stored at 40° C., 75% relative humidity (RH). Samples may be taken at various time points to analyze for the presence of impurities.
Various samples comprised of the levosulpiride with excipients as described in Table 11 below were packaged in 60 cc HDPE bottles with induction seals, then stored at 40° C., 75% RH. Samples were analyzed at 1 and 2 months using HPLC according to the method described in Example 6.

[3] = 1 vs. 2 month (one value given)

## CCN1CCC[C@H]1CNC(=O)c1cc(S(N)(=O)=O)ccc1OC [Levosulpiride]
[1]; 50° C. or 80° C., 75% RH, 3 days
  Impurities under the stressed condition: did not increase
[1]; 50° C./75% RH, Time = 3 days
  Impurity B RPA (%): <0.05%
  Levosulpiride peak RPA (%): 100%
  Unknown Impurity 1 RPA (%): <0.05%
  Unknown Impurity 2 RPA (%): 0.20%
[1]; 80° C./75% RH, Time = 3 days
  Impurity B RPA (%): <0.05%
  Levosulpiride peak RPA (%): 100%
  Unknown Impurity 1 RPA (%): <0.05%
  Unknown Impurity 2 RPA (%): 0.22%
[1]; Time = 0
  Impurity B RPA (%): <0.05%
  Levosulpiride peak RPA (%): 100%
  Unknown Impurity 1 RPA (%): <0.05%
  Unknown Impurity 2 RPA (%): 0.17%
[2]; 1 month
  Unknown Impurity 2 RPA (%): 0.18%
[2]; [3]
  Impurity B RPA (%): <0.05%
  Levosulpiride peak RPA (%): 100%
  Unknown Impurity 1 RPA (%): <0.05%
[2]; 2 month
  Unknown Impurity 2 RPA (%): 0.19%
